Results as given in paper PMC9773353 (ACS Omega, 2022).
“And” between values parts separate entries of the source, which are not always exact repeats. Equal entries are not always repeated.

Columns and labels:
HEK-293 T normal cells = test: MTT cell viability assay, HEK-293 T normal cells; type: cell-based; settings: 100 μM, 24–48 h incubation, MTT; for % cell viability ± SD (HEK-293 T cells): vs untreated control
BHK-21 normal cells = test: MTT cell viability assay, BHK-21 normal cells; type: cell-based; settings: 100 μM, 24–48 h incubation; for % cell viability ± SD (BHK-21 cells): vs untreated control
hCA XII = hCA XII (Homo sapiens, UniProt O43570); test: Carbonic anhydrase inhibition assay; type: biochemical
hCA II = hCA II (Homo sapiens, UniProt P00918); test: Carbonic anhydrase inhibition assay; type: biochemical; settings: for IC50: IC50 ± SEM hCA II, mean of three independent experiments; for inhibition of hCA-II in words: text grading of Table 4 results
[1] = MTT cell viability assay, HEK-293 T normal cells; type: cell-based; settings: human, HEK-293 T normal cells; for viability at 100 µM: % cell viability ± SD (HEK-293 T cells), 24–48 h incubation, MTT, vs untreated control
hCA IX = hCA IX (Homo sapiens, UniProt Q16790); test: biochemical

hCA XII, sequence (O43570 25-354): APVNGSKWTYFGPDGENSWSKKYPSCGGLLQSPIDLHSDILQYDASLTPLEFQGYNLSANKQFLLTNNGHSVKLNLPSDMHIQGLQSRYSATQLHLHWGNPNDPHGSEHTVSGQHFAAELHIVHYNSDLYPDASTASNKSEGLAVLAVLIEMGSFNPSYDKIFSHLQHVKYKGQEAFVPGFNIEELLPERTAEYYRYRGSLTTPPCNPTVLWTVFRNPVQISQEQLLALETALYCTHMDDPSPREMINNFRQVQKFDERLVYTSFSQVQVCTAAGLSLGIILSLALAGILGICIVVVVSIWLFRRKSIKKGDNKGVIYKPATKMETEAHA

Compound: 3-(3-(3,4-Dimethoxybenzoyl) thioureido) Benzoic Acid [Compound 21]
- % cytotoxicity ± SD (HEK-293 T cells) (HEK-293 T normal cells): 13 ± 0.05%
- % cell viability ± SD (HEK-293 T cells) (HEK-293 T normal cells): 86 ± 0.6%
- % cytotoxicity ± SD (BHK-21 cells) (BHK-21 normal cells): 51.5 ± 0.06%
- % cell viability ± SD (BHK-21 cells) (BHK-21 normal cells): 48 ± 0.1%

Compound: Cc1cc(C)cc(C(=O)Nc2cc(Cl)c(S(N)(=O)=O)cc2S(N)(=O)=O)c1 [Compound 11, N-(5-Chloro-2,4-disulfamoylphenyl)-3,5-dimethylbenzamide]
- IC50 (hCA XII): 2.99 ± 0.32 µM
- IC50 (hCA II): 1.19 µM and 1.18 µM
- cytotoxicity at 100 µM [1]: 27 ± 0.06%
- viability at 100 µM [1]: 72 ± 0.6%
- IC50 (hCA IX): 0.17 ± 0.05 µM

Compound: COc1ccc(C(=O)Nc2cc(Cl)c(O)c(Cl)c2)cc1OC [Compound 12, N-(3,5-Dichloro-4-hydroxyphenyl)-3,4-dimethoxybenzamide]
- IC50 (hCA XII): 0.58 ± 0.06 µM
- inhibition of hCA-II in words (hCA II): did not show any inhibition
- cytotoxicity at 100 µM [1]: 26.6 ± 0.06%
- viability at 100 µM [1]: 73 ± 0.1%

Compound: Cc1ccc(C(=O)Nc2cccc(C(=O)O)c2)c(C)c1 [Compound 13, 3-(2,4-Dimethylbenzamido) Benzoic Acid]
- cytotoxicity at 100 µM [1]: 14 ± 0.09%
- viability at 100 µM [1]: 86 ± 0.6%
- IC50 (hCA IX): 10.4 ± 1.45 µM

Compound: Cc1cc(C)cc(C(=O)Nc2cc([N+](=O)[O-])ccc2Cl)c1 [Compound 14, N-(2-Chloro-5-nitrophenyl)-3,5-dimethylbenzamide]
- IC50 (hCA XII): 0.95 ± 0.08 µM
- IC50 (hCA II): 6.49 ± 0.63 µM
- inhibition of hCA-II in words (hCA II): moderate inhibition
- cytotoxicity at 100 µM [1]: 15 ± 0.4%
- viability at 100 µM [1]: 85 ± 0.1%

Compound: Cc1cc(C)cc(C(=O)Nc2cc(Br)cc(C(F)(F)F)c2)c1 [Compound 15, N-(3-Bromo-5-(trifluoromethyl)phenyl)-3,5-dimethylbenzamide]
- IC50 (hCA XII): 1.05 ± 0.11 µM
- IC50 (hCA II): 1.93 ± 0.15 µM
- cytotoxicity at 100 µM [1]: 18 ± 0.6%
- viability at 100 µM [1]: 82 ± 0.6%

Compound: COc1ccc(C(=O)NC(=S)Nc2cc(Cl)c(S(N)(=O)=O)cc2S(N)(=O)=O)cc1OC [Compound 17, N-((5-Chloro-2,4-disulfamoylphenyl)carbamothioyl)-3,4-dimethoxybenzamide]
- IC50 (hCA II): 11.5 ± 0.16 µM
- inhibition of hCA-II in words (hCA II): moderate inhibition
- cytotoxicity at 100 µM [1]: 3 ± 0.04%
- viability at 100 µM [1]: 97 ± 0.3%
- IC50 (hCA IX): 1.71 ± 0.65 µM

Compound: COc1ccc(C(=O)NC(=S)Nc2ccc(C(=O)O)cc2)cc1OC [Compound 18, 4-(3-(3,4-Dimethoxybenzoyl)thioureido) Benzoic Acid]
- IC50 (hCA XII): 1.68 ± 0.15 µM
- IC50 (hCA II): 4.17 ± 0.29 µM
- inhibition of hCA-II in words (hCA II): moderate inhibition
- cytotoxicity at 100 µM [1]: 24 ± 0.07%
- viability at 100 µM [1]: 75%
- IC50 (hCA IX): 0.21 ± 0.09 µM

Compound: COc1ccc(C(=O)NC(=S)Nc2c(Cl)cc([N+](=O)[O-])cc2Br)cc1OC [Compound 19, N-((2-Bromo-6-chloro-4-nitrophenyl)carbamothioyl)-3,4-dimethoxybenzamide]
- IC50 (hCA II): 0.725 µM and 0.72 µM
- cytotoxicity at 100 µM [1]: 50 ± 0.08%
- viability at 100 µM [1]: 49 ± 0.6%
- IC50 (hCA IX): 1.01 ± 0.05 µM

Compound: COc1ccc(C(=O)NC(=S)Nc2cc([N+](=O)[O-])ccc2Cl)cc1OC [Compound 22, N-((2-Chloro-5-nitrophenyl)carbamothioyl)-3,4-dimethoxybenzamide]
- IC50 (hCA XII): 4.29 ± 0.24 µM
- IC50 (hCA II): 0.26 ± 0.03 µM
- cytotoxicity at 100 µM [1]: 9 ± 0.05%
- viability at 100 µM [1]: > 90%
- IC50 (hCA IX): 4.93 ± 1.83 µM

Compound: Cc1cc(C)cc(C(=O)NC(=S)Nc2ccccc2O)c1 [Compound 24, N-((2-Hydroxyphenyl)carbamothioyl)-3,5-dimethylbenzamide]
- IC50 (hCA XII): 9.9 ± 0.66 µM
- IC50 (hCA II): 1.24 ± 0.96 µM
- cytotoxicity at 100 µM [1]: 18 ± 0.03%
- viability at 100 µM [1]: 81 ± 0.1%
- IC50 (hCA IX): 1.25 ± 0.02 µM

Compound: Cc1ccc(C(=O)NC(=S)Nc2ccc(C(=O)O)cc2)c(C)c1 [Compound 25, 4-(3-(2,4-Dimethylbenzoyl)thioureido) Benzoic Acid]
- IC50 (hCA II): 0.38 ± 0.01 µM
- cytotoxicity at 100 µM [1]: 2 ± 0.02%
- viability at 100 µM [1]: > 90%
- IC50 (hCA IX): 9.76 ± 1.03 µM

Compound: Cc1cc(C)cc(C(=O)NC(=S)Nc2cc(Cl)c(O)c(Cl)c2)c1 [Compound 26, N-((3,5-Dichloro-4-hydroxyphenyl)carbamothioyl)-3,5-dimethylbenzamide]
- IC50 (hCA XII): 2.02 ± 0.28 µM
- IC50 (hCA II): 4.45 ± 0.11 µM
- inhibition of hCA-II in words (hCA II): moderate inhibition
- cytotoxicity at 100 µM [1]: 2 ± 0.06%
- viability at 100 µM [1]: > 90%
- IC50 (hCA IX): 1.28 ± 0.09 µM

Compound: N-((2-Hydroxyphenyl) carbamothioyl)-3,4-dimethoxybenzamide [Compound 20]
- inhibition of hCA-II in words (hCA II): did not show any inhibition
- % cytotoxicity ± SD (HEK-293 T cells) (HEK-293 T normal cells): 13 ± 0.03%
- % cell viability ± SD (HEK-293 T cells) (HEK-293 T normal cells): 86 ± 0.07%
- % cytotoxicity ± SD (BHK-21 cells) (BHK-21 normal cells): 54.6 ± 0.02%
- % cell viability ± SD (BHK-21 cells) (BHK-21 normal cells): 45 ± 0.09%

Compound: N-((3-Bromo-5-(trifluoromethyl) phenyl) carbamothioyl)-3,4-dimethoxybenzamide [Compound 23]
- inhibition of hCA-II in words (hCA II): did not show any inhibition
- % cytotoxicity ± SD (HEK-293 T cells) (HEK-293 T normal cells): 26 ± 0.06%
- % cytotoxicity ± SD (BHK-21 cells) (BHK-21 normal cells): 65.0 ± 0.06%
